According to paper PMC12362582, “Linker Methylation as a Strategy to Enhance PROTAC Oral Bioavailability: Insights from Molecular Properties and Conformational Analysis” (Journal of Medicinal Chemistry, 2025):

Legend:
[1] = In vivo pharmacokinetics in mice (oral bioavailability, clearance); settings: for bioavailability: female, BomTac:NMRI-Foxn1nu, mouse, plasma, mice, AUC_DN oral (typically 30 mg/kg) / AUC_DN IV (5 mg/kg) * 100, read-out: F% (oral bioavailability in mice); for Mouse CL (% Qh): mouse clearance as % of hepatic blood flow
Method: Bioavailability in mice was determined by comparing plasma exposure after oral administration with plasma exposure after intravenous administration (see Experimental Part). The investigated data set includes PROTACs with very low (F < 1%), low (F < 5%) and medium/high (F > 5%, in bold in Table ) oral bioavailability. Only low-clearance PROTACs were investigated, with clearance of less than 10% of the hepatic blood flow, to avoid extensive hepatic first-pass effect (Mouse CL see Table S2).
The authors confirm that the research in this study complies with all relevant ethical regulations. All animal studies were approved by the internal ethics committee (called “ethics committee”) of Boehringer Ingelheim RCV GmbH & Co KG in the department of Cancer Pharmacology and Disease Positioning. Furthermore, all protocols were approved by the Austrian governmental committee (MA 60 Veterinary office; approval numbers GZ: 903122/2017/21, GZ: 154399/2018/16, GZ: MA 58–670393–2019–18, GZ: MA 58–546776–2022–13). Female BomTac:NMRI-Foxn1nu mice were obtained from Taconic Denmark at an age of 6–8 weeks. After arrival at the local AAALAC accredited animal facility at Boehringer Ingelheim RCV GmbH & Co KG mice were allowed to adjust to housing conditions for at least 5 days before the start of the experiment, i.e. mice in all experiments were 7–9 weeks old. Mice were group-housed under pathogen-free and controlled environmental conditions (21 ± 1.5 °C temperature, 55 ± 10% humidity) and handled according to the institutional, governmental and European Union guidelines (Austrian Animal Protection Laws, GV SOLAS and FELASA). Animal studies were approved as described in the Ethics section. Food and water were provided ad libitum.
All pharmacokinetic studies were conducted with three mice per dose group and testing route. Oral bioavailability was determined by comparing the dose-normalized area under the plasma concentration–time curve (AUC_DN) following oral administration to the AUC_DN after intravenous (IV) administration of the same drug. All oral administrations were conducted with a volume of application of 10 mL/kg, typically at a dose of 30 mg/kg as a solution in a 25% to 40% HP-β-CD at a pH range of 4 to 5. Intravenous administrations were conducted at a dose of 5 mg/kg, with a volume of application of 5 mL/kg in 25% HP-β-CD at a pH of 5. Blood samples were obtained from the vena saphena at five time points after each administration, with the aim of measuring the drug concentration in the plasma. The concentrations of the compound in plasma samples were determined by quantitative HPLC-MS/MS, employing an internal standard. Calibration and quality control samples were prepared using blank plasma from untreated animals. The samples were precipitated with acetonitrile and subsequently injected into an HPLC system (Agilent 1200). The separation was conducted using a gradient of 5 mmol/L ammonium acetate at pH 4.0 and acetonitrile with 0.1% formic acid on a 2.1 mm by 50 mm XBridge BEH C18 reversed-phase column with 2.5 μm particles (Waters). The HPLC was interfaced with an ESI-operated triple quadrupole mass spectrometer (5000 or 6500+ Triple Quad System, SCIEX) operated in multiple reaction monitoring mode. The chromatograms were analyzed using Analyst (SCIEX), and the pharmacokinetic parameters, such as AUC_DN, were calculated using noncompartmental analysis with BI-proprietary software.
The oral bioavailability (F%) was calculated using the following formula: F% = AUC_DN_oral/AUC_DN_IV) * 100.

[2] = Chamelogk chromatographic chameleonicity (PLRP-S column); type: physicochemical; settings: Exp. log k'100 – Ext. log k'100, PLRP-S column
Source text: Chameleonicity was monitored by Chamelogk, a recent chromatographic descriptor able to capture environment-dependent conformational changes by monitoring different mobile phase compositions on the PLRP-S column. All PROTACs behave as strong chameleons (Chamelogk > 0.6). Additionally, we calculated the EPSA-to-TPSA ratio (ETR), a recently proposed index for polarity masking. The ETR values remained consistently around 0.7 across the series, supporting the notion that conformational effects contribute uniformly to the polarity profiles of the analyzed PROTACs.
Using the PLRP-S column, we assessed the RT of each PROTAC in the data set at four different mobile phase conditions (50, 60, 70 and 100% MeCN) and calculated the capacity factor at each mobile phase composition. First, we constructed a linear trend using the first three mobile phase conditions (50, 60, and 70% MeCN) that respected a linear behavior and calculated the extrapolated value at 100% MeCN (Ext. log k′100). Chamelogk was then calculated with the following equation: Chamelogk = Exp. log k′100 – Ext. log k′100.

[3] = BRlogD chromatographic lipophilicity (XBridge Shield RP18); type: physicochemical; settings: XBridge Shield RP18 HPLC column (130 Å, 5 µm, 5 cm × 4.6 mm); 60% ACN / 40% 20 mM ammonium acetate, pH 7
Method: Lipophilicity was assessed using three chromatographic descriptors, each simulating distinct aspects of membrane environments. BRlogD is a surrogate of the octanol/water distribution coefficient (log D oct) reflecting a general partitioning across biological membranes. Log k W ^IAM implements an Immobilized Artificial Membrane (IAM) column which provides a lipophilicity index in an environment resembling the membrane phospholipids. Finally, log k′80 PLRP-S reflects retention in a hydrophobic polymeric column environment, mimicking the nonpolar core of lipid bilayers, and acts as a surrogate for the toluene/water partition coefficient (log D tol). Lipophilicity remained within a moderate range across all systems.
All chromatographic measurements were performed using the Thermo Scientific Inc. HPLC DIONEX Ultimate 3000 connected to an RS diode array and the Chromeleon 7.2.10 software (www.thermofisher.com). 1.5 mL HPLC vials, 9 mm PP screw caps, and high-performance ergonomic single-channel variable volume pipettors from VWR Signature were used. A Eutech pH Meter 2700 was used to regulate the pH of each buffer and sample (www.fishersci.com). For all the chromatographic descriptors, the mobile phase consisted of an acetonitrile solution (ACN) and 20 mM AAB, pH 7. Moreover, 10 μL was set as the volume of injection of compound concentrations ranging from 50 to 100 μg/mL in ACN/buffer mixtures. One mL/min was chosen as the isocratic flow rate and 30 °C as the oven temperature. However, each chromatographic system (RP) had its own conditions:
BRlogD as an analog of log Poct required the use of the XBridge Shield RP18 (130 Å, 5 μm, 5 cm × 4.6 mm) column by Waters (www.waters.com). The eluent was composed of a 60% ACN and 40% 20 mM ammonium acetate buffer (v/v) mixture. The retention time was measured for the analyte and the log k′60 was calculated (capacity factor k′60 = [t R (60% ACN) – t 0]/t 0) and then converted to the corresponding BRlogD value using the equation BRlogD = 3.31x + 2.79. In addition, acetone, caffeine, ibuprofen, lidocaine, phenol, and a mixture of uracile, acetophenone, and toluene were used as gold standards.

SMILES	bioavailability [1] [%]	Mouse CL (% Qh) [1] [% Qh]	Chamelogk [2]	chromatographic logD [3]
Cc1ncsc1-c1ccc([C@H](CCCN2CCC(c3ccc4c(c3)n(C3CCCC3)c3nc(=O)c5c(Br)cccc5n43)CC2)NC(=O)[C@@H]2C[C@@H](O)CN2C(=O)[C@@H](NC(=O)C2(F)CC2)C(C)(C)C)cc1 [A3-1]	0.6	7.9	>2	2.29
Cc1ncsc1-c1ccc([C@H](CC[C@H](C)CCN2CCC(c3ccc4c(c3)n(C3CCCC3)c3nc(=O)c5c(Br)cccc5n43)CC2)NC(=O)[C@@H]2C[C@@H](O)CN2C(=O)[C@@H](NC(=O)C2(F)CC2)C(C)(C)C)cc1 [A5-2]	22.1	2.3	>2	2.76
Cc1ncsc1-c1ccc([C@H](C[C@H](C)CN2CCC(c3ccc4c(c3)n(C3CCCC3)c3nc(=O)c5c(Br)cccc5n43)CC2)NC(=O)[C@@H]2C[C@@H](O)CN2C(=O)[C@@H](NC(=O)C2(F)CC2)C(C)(C)C)cc1 [A3-2]	5.4	3.6	>2	3.29
Cc1ncsc1-c1ccc([C@H](C[C@@H](C)CN2CCC(c3ccc4c(c3)n(C3CCCC3)c3nc(=O)c5c(Br)cccc5n43)CC2)NC(=O)[C@@H]2C[C@@H](O)CN2C(=O)[C@@H](NC(=O)C2(F)CC2)C(C)(C)C)cc1 [A3-3]	16.4	9.3	>2	3.32
Cc1ncsc1-c1ccc([C@H](CC[C@@H](C)CCN2CCC(c3ccc4c(c3)n(C3CCCC3)c3nc(=O)c5c(Br)cccc5n43)CC2)NC(=O)[C@@H]2C[C@@H](O)CN2C(=O)[C@@H](NC(=O)C2(F)CC2)C(C)(C)C)cc1 [A5-3]	31.5	3.9	>2	2.8
Cc1ncsc1-c1ccc([C@@H](CC[C@@H](C)CCN2CCC(c3ccc4c(c3)n(C3CCCC3)c3nc(=O)c5c(Br)cccc5n43)CC2)NC(=O)[C@@H]2C[C@@H](O)CN2C(=O)[C@@H](NC(=O)C2(F)CC2)C(C)(C)C)cc1 [A5-4]	1.2	2.8	>2	2.76
Cc1ncsc1-c1ccc([C@H](CCCCCN2CCC(c3ccc4c(c3)n(C3CCCC3)c3nc(=O)c5c(Br)cccc5n43)CC2)NC(=O)[C@@H]2C[C@@H](O)CN2C(=O)[C@@H](NC(=O)C2(F)CC2)C(C)(C)C)cc1 [A5-1]	4.3	2.5	>2	2.46

The remaining lines, values ahead:

bioavailability [1] [%]	Mouse CL (% Qh) [1] [% Qh]	Chamelogk [2]	chromatographic logD [3]	SMILES
1.7	5.4	>2	2.64	Cc1ncsc1-c1ccc([C@H](CO[C@H](C)CN2CCC(c3ccc4c(c3)n(C3CCCC3)c3nc(=O)c5c(Br)cccc5n43)CC2)NC(=O)[C@@H]2C[C@@H](O)CN2C(=O)[C@@H](NC(=O)C2(F)CC2)C(C)(C)C)cc1 [B-2]
2.3	7.1	>2	2.58	Cc1ncsc1-c1ccc([C@H](CO[C@@H](C)CN2CCC(c3ccc4c(c3)n(C3CCCC3)c3nc(=O)c5c(Br)cccc5n43)CC2)NC(=O)[C@@H]2C[C@@H](O)CN2C(=O)[C@@H](NC(=O)C2(F)CC2)C(C)(C)C)cc1 [B-3]
0.9	8.5	>2	2.64	Cc1ncsc1-c1ccc([C@H](COCCN2CCC(c3ccc4c(c3)n(C3CCCC3)c3nc(=O)c5c(Br)cccc5n43)CC2)NC(=O)[C@@H]2C[C@@H](O)CN2C(=O)[C@@H](NC(=O)C2(F)CC2)C(C)(C)C)cc1 [B-1]
90.9	6.0	>2	3.25	Cc1ncsc1-c1ccc([C@H](COC(C)(C)CN2CCC(c3ccc4c(c3)n(C3CCCC3)c3nc(=O)c5c(Br)cccc5n43)CC2)NC(=O)[C@@H]2C[C@@H](O)CN2C(=O)[C@@H](NC(=O)C2(F)CC2)C(C)(C)C)cc1 [B-4]
